The values below come from PubChem BioAssay (NCI).

SMILES strings stand for the structures.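 How tested: cells in 96-well plates exposed to compound for 48 hours at five concentrations. GI50: concentration for 50% inhibition of growth. At the TGI there is no net growth.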

Common to all, as to assay: NCI tumour cell line growth inhibition, 48 h
Assay [1] concerns A498 renal.
In assay [2] the test system is BT-549 breast.
Assay [3] relates to HCT-116 colon.
Assay [4] has as its system HL-60(TB) leukemia.
The subject of assay [5] is M14 melanoma.
Assay [6] has as its system MDA-MB-231 breast.
Assay [7] has as its system MDA-MB-435.
Assay [8] relates to NCI-H226 lung.
Assay [9] relates to OVCAR-5 ovarian.
In assay [10] the test system is UACC-257 melanoma.

Take `COc1cc(OCc2cccc(-c3ccc(C(O)c4nccs4)cc3)c2C)cc(OC)c1C=O` (configuration not stated): the GI50 in assay [1] was 0.103 µM; in assay [2], 1.77 µM; in assay [3], 1.44 µM; in assay [4], 1.87 µM; in assay [5], 2.55 µM; in [6], 2.2 µM. Also, the GI50 in [7] was 2.22 µM; in [8], 0.37 µM; in [9], 0.929 µM; in [10], 0.842 µM. In addition, the TGI stood at 0.238 µM in [1]; 6.78 µM in assay [2]; 4.51 µM in assay [3]; 4.85 µM in [4]; 7.61 µM in assay [5]; 7.32 µM in [6]. The TGI in [7] was determined as 6.26 µM; in assay [8], 2.7 µM; in assay [9] it was 5.54 µM; in assay [10], 5.11 µM.

For the molecule `Cc1ccc(S(=O)(=O)Nc2ccccc2C=O)cc1`, the TGI in assay [1] was 92.2 µM; in assay [2], 58.8 µM; in assay [3] it was 28 µM; in [4], 27.6 µM; in assay [5], 54.7 µM; in assay [6], 41 µM. The TGI in [7] came to 34.9 µM; in assay [8], 41.5 µM; in [9] it was 67 µM; in [10], 45.7 µM.

Turning to `C/C=C/C(CC(O)(C(F)(F)F)C(F)(F)F)=N/NC(N)=S`, the TGI in assay [1], in assay [2], in assay [3], in [4], in [5] and in [6] was above 10 µM each time. The TGI in assay [7], in [8], in assay [9] and in assay [10] was above 10 µM throughout.

As to `CC1(C)CC(=O)C(C=NC(=S)c2ccccc2)=C(O)C1`, the TGI in [2], in assay [3], in assay [4], in assay [5], in assay [6] and in assay [7] was above 100 µM in each case. For the same molecule, the TGI in assay [8], in assay [9] and in [10] was above 100 µM throughout.

Regarding `COC(=O)COc1ccccc1/C=C1\N=C(c2ccccc2)N(c2cc(C(F)(F)F)ccc2Cl)C1=O`, the GI50 in [1] is above 100 µM; in [2], 28.4 µM; in assay [3], 38.2 µM; in [4], 31.1 µM; in assay [5], 37.9 µM; in [6], above 100 µM. In addition, the GI50 was 33.1 µM in assay [7], 66.6 µM in assay [8] and above 100 µM in assay [9]. For the same molecule, the TGI was above 100 µM in [1]; 86.2 µM in assay [2]; above 100 µM in [3]; above 100 µM in assay [4]; above 100 µM in assay [5]; above 100 µM in assay [6]. Besides, the TGI in [7], in assay [8] and in assay [9] was above 100 µM throughout.

Regarding `CSC1=Nc2c(c(C)c(C)n2COC(CO)CO)C2=NC(=O)C(C)N12` (configuration not stated), the GI50 in [1], in assay [2], in [3], in assay [6], in [7] and in assay [8] was above 100 µM in each case. Also, the GI50 in assay [9] and in [10] was above 100 µM each time. The TGI in assay [1], in [2], in [3], in assay [4], in assay [6] and in assay [7] was above 100 µM throughout. The TGI in [8], in assay [9] and in [10] was above 100 µM throughout.

Regarding `CC(=O)OC1COC(Oc2c(C)c3c4c(c2O)[C@@H](C)CC[C@@H]4[C@@H](C)C[C@H]3C=C(C)C)C(O)C1OC(C)=O` (some centres not stated), the GI50 in assay [1] was 23.5 µM; in assay [2], 26.9 µM; in assay [3], 10.8 µM; in assay [5], 13.7 µM; in [6], 16.2 µM; in assay [7], 10.8 µM. In addition, the figures for the GI50 in assay [8], in assay [9] and in assay [10] were 14.2 µM, 15.5 µM and 14.1 µM, respectively. The TGI in assay [1] was 45.7 µM; in assay [2], 69.7 µM; in assay [3] it was 23.4 µM; in [5] it was 27.8 µM; in assay [6], 31.9 µM; in [7] it was 23.8 µM. Besides, the TGI was found to be 31.4 µM in assay [8], 30.1 µM in [9] and 28.4 µM in assay [10].

As for `S=C(Nc1ccc(Cl)cc1)Nc1ccc(-c2nc3ccccc3s2)cc1`, the GI50 in assay [2] is 26.3 µM; in [3], 13.5 µM; in [4], 8.22 µM; in assay [5], 14.3 µM; in assay [6], 15.3 µM; in assay [7], 13.4 µM. The GI50 is 17.9 µM in [8], 20.8 µM in assay [9] and 20.3 µM in [10]. The TGI in assay [2] is 61.5 µM; in [3], 26.3 µM; in [4] it was above 100 µM; in assay [5], 28 µM; in [6] it was 34.3 µM; in assay [7], 29.8 µM. Besides, the values for the TGI in assay [8], in assay [9] and in [10] were 47.4 µM, 44 µM and 44.9 µM, respectively.

Turning to `O=C(Nc1ccc2ncccc2c1)Nc1ccc2ncccc2c1`, the TGI in [1], in assay [2], in assay [3], in assay [5], in assay [6] and in [7] was above 100 µM throughout. Further, the TGI in [8], in assay [9] and in assay [10] was above 100 µM each time.

On to `CC1(C)C(C#N)C1C1=C(N2CCOCC2)[C@]2(C)C(OC(=O)c3ccccc3)CC[C@@H]2C1` (some centres not stated), for which the TGI in [1], in assay [2], in assay [3], in assay [5], in assay [6] and in [7] was above 100 µM in each case. The TGI in assay [8], in assay [9] and in assay [10] was above 100 µM throughout.

Regarding `COc1ccc(C2SC(N)=Nc3c2c(C)nn3C(=O)c2ccncc2)cc1OC` (configuration not stated), the TGI in [2], in assay [3], in assay [4], in assay [5], in assay [6] and in assay [7] was above 10 µM throughout. The TGI in [8], in assay [9] and in assay [10] was above 10 µM throughout.
